# Key:
# [1] = target: T1, riboflavin binding protein (RfBP) (Gallus gallus, UniProt P02752)
# T1 sequence (P02752 18-238): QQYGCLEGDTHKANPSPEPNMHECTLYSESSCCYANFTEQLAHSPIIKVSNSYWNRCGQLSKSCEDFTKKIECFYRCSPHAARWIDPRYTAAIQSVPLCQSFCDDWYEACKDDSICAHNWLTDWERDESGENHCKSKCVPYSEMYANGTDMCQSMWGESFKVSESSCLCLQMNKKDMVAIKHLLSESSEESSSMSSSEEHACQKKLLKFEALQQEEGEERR
# ribonuclease A (RNase) = target: T2, ribonuclease A (RNase) (Bos taurus, UniProt P61823); format: binding
# T2 sequence (P61823 27-150): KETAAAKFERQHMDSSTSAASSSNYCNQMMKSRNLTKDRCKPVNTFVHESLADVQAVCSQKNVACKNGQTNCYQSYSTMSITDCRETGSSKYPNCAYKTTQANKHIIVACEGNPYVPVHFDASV
# [2] = target: T1, riboflavin binding protein (RfBP); remark: listed apart in the source
SMILES,absorbance and fluorescence titration; stopped-flow; DTNB protection [1],absorbance and fluorescence titration; DTNB protection (ribonuclease A (RNase)),absorbance (252 nm) and fluorescence titration; DTNB protection [2]
C[As](O)O [MMA],PSAO and MMA bind almost quantitatively to reduced unfolded RfBP,–,–
O[As](O)O [arsenite],–,Figure 7A demonstrates the binding of arsenite to reduced bovine pancreatic RNase using absorbance and fluorescence quenching,PSAO and arsenite also bind to reduced RfBP with a strong fluorescence quenching
